Laboratory results taken from patent US20200061062A1, “INHIBITORS OF HUMAN PHOSPHATIDYLINOSITOL 3-KINASE DELTA” (ICOS Corporation, priority 2000, published 2020).
Read-outs that look alike come from different tables or passages of the source.

Key:
PI3Kβ [1] = target: T1, PI3Kβ (Homo sapiens, UniProt P42338); assay: Biochemical assay of PI3K potency and selectivity using 20 μM ATP, Beta; details: 20 μM ATP; for Beta/Delta Ratio: ratio of IC50 values, > = hypothetical ratio with 100 μM substituted for the missing IC50; for remaining activity at 100 µM: read-out: Beta: percent activity remaining at 100 μM, 100 μM compound did not inhibit by at least 50%; for IC50: read-out: Beta IC50
T1 construct: His tag (pFastbac HTa vector) (N); FLAG (N); made in house; host or cells: Sf21 insect cells (baculovirus)
T1 sequence (P42338 whole entry): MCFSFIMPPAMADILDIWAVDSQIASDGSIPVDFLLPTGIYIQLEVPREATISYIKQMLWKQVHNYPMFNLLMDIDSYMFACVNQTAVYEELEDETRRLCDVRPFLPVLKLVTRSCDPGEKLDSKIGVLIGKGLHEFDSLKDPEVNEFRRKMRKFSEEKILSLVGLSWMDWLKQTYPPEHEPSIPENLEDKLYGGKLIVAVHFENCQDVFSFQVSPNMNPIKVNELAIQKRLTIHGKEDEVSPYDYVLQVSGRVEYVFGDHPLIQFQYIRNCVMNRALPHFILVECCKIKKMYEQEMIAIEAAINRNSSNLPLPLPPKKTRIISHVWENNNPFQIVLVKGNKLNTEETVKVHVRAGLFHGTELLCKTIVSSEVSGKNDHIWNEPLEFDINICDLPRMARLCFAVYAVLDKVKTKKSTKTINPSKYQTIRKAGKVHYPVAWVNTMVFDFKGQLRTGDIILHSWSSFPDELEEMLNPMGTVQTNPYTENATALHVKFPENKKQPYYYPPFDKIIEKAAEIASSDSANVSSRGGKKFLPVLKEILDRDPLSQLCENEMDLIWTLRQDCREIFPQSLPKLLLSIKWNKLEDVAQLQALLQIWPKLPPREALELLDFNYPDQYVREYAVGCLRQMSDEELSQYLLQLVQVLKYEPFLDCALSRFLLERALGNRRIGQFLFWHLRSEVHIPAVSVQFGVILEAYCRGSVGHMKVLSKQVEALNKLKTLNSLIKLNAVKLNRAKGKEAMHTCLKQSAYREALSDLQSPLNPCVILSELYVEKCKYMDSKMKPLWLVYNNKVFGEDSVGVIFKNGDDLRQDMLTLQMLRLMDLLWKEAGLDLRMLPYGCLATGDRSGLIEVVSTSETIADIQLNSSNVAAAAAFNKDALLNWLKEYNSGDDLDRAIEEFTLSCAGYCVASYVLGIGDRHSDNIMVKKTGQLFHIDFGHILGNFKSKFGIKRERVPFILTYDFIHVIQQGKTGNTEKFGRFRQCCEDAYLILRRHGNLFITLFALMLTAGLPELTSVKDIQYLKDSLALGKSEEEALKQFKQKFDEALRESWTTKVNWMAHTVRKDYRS
T1 sequence (P27986 whole entry partner): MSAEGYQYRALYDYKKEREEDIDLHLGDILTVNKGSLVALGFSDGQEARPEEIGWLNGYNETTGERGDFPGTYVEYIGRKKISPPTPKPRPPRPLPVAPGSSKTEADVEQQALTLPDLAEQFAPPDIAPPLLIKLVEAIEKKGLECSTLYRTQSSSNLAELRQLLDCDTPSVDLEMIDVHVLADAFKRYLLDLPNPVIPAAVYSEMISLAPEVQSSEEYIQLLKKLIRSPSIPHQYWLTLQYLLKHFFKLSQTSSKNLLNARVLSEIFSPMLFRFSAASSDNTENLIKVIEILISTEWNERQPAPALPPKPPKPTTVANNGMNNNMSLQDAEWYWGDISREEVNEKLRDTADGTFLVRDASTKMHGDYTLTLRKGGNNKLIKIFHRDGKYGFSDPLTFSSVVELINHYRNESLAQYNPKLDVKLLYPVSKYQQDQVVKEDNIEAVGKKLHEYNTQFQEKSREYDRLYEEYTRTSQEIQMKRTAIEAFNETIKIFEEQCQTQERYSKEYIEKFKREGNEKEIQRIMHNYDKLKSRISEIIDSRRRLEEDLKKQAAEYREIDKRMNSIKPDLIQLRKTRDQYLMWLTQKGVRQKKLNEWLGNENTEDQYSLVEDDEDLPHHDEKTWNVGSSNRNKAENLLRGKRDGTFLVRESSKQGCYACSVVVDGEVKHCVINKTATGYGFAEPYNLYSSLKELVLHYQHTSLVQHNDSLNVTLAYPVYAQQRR
Experimental: (§1) Recombinant PI3K heterodimeric complexes consisting of a p110 catalytic subunit and a p85 regulatory subunit were overexpressed using the BAC-TO-BAC® HT baculovirus expression system (GIBCO/BRL), and then purified for use in biochemical assays. The four Class I PI 3-kinases were cloned into baculovirus vectors as follows:
The 3× substrate for the HTS contained 0.6 mM Na2ATP, 0.10 mCi/mL γ-[^32P]ATP (NEN, Pittsburgh, Pa.), 6 μM PIP2/PS liposomes (Avanti Polar Lipids, Inc., […].), in 20 mM HEPES, pH 7.4.

PI3Kα [2] = target: T2, PI3Kα (Homo sapiens, UniProt P42336); assay: Biochemical assay of PI3K potency and selectivity using 20 μM ATP, Alpha; details: for Alpha/Delta Ratio / IC50: 20 μM ATP; for Alpha/Delta Ratio: ratio of IC50 values, > = hypothetical ratio with 100 μM substituted for the missing IC50; for IC50: read-out: Alpha IC50
T2 construct: His tag (pFastbac HTb vector) (N); FLAG; made in house; host or cells: Sf21 insect cells (baculovirus)
T2 sequence (P42336 whole entry): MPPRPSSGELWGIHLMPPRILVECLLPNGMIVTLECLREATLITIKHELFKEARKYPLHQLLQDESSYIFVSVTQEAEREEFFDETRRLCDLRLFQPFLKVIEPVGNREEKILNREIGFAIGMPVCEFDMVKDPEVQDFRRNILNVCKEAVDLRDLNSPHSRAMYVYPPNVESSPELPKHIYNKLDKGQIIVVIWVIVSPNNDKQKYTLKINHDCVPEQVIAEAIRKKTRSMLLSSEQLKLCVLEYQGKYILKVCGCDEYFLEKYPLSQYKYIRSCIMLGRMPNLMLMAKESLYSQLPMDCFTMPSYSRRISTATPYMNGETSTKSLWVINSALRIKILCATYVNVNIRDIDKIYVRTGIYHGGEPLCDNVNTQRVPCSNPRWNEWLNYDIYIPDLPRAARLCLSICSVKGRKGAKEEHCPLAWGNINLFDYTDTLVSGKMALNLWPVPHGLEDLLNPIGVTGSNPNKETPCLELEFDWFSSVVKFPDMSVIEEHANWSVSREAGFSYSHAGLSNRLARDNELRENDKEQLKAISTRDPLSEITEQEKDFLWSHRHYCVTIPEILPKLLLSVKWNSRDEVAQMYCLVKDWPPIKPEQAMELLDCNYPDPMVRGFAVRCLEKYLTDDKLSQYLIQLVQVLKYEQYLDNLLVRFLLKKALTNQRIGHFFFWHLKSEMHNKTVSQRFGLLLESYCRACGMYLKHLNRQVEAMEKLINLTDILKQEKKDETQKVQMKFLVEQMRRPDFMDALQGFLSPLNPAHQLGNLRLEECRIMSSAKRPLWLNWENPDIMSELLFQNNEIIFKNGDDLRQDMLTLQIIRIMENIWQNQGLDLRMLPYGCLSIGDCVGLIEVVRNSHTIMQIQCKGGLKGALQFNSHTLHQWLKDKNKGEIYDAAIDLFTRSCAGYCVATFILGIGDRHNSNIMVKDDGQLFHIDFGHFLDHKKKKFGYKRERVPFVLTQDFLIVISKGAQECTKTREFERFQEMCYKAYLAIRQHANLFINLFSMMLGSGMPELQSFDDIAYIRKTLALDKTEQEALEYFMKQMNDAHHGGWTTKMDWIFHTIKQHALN
T2 sequence (P27986 whole entry partner): as the sequence (P27986 whole entry partner) above
Source text: as §1, with “follows: […]” for “follows:”

[3] = system: Murine splenocytes (Balb/c); assay: B cell proliferation in response to cell surface IgM stimulation; assay type: cell-based; details: Mus musculus, Splenocyte; stimulated B cell proliferation; read-out: Mouse BCR Stim (EC50)
Experimental: In the above experiment, the B cells were stimulated using PANSORBIN®. The effect of D-000 on B cell proliferation response when they were stimulated through their cell surface IgM using anti-IgM antibody also was measured. Murine splenocytes (Balb/c) were plated into 96-well microtiter plates at 2×10^5 cells per well in 10% FBS/RPMI. Appropriate dilutions of test inhibitor in complete medium were added to the cells and the plates were incubated for 30-60 minutes prior to the addition of stimulus. Following the preincubation with test inhibitor an F(ab′)2 preparation of goat antibody specific for the μ-chain of mouse IgM was added to the wells at a final concentration of 25 μg/mL. The plates were incubated at 37° C. for 3 days and 1 μCi of [^3H]-thymidine was added to each well for the final four hours of culture. The plates were harvested onto fiber filters washed and the incorporation of radiolabel was determined using a beta counter (Matrix 96, Packard Instrument Co., Downers Grove, Ill.) and expressed as counts per minute (CPM).
(§2) Using the methods described in Examples 3-5, above, compounds of the invention were tested for inhibitory activity and potency in assays of stimulated B and T cell proliferation, neutrophil (PMN) migration, and neutrophil (PMN) elastase release. In Table 4, the values shown are effective concentrations of the compound (EC50; μM). Where no value is given, no assay was performed.

PI3Kδ [4] = target: T3, PI3Kδ (Homo sapiens, UniProt O00329, S253N); assay: Biochemical assay of PI3K potency and selectivity using 20 μM ATP, Delta; design: His tag (pFastbac HTb vector) (N); FLAG; made in house; host or cells: Sf21 insect cells (baculovirus); details: 20 μM ATP; read-out: Delta IC50
T3 sequence (O00329 whole entry S253N): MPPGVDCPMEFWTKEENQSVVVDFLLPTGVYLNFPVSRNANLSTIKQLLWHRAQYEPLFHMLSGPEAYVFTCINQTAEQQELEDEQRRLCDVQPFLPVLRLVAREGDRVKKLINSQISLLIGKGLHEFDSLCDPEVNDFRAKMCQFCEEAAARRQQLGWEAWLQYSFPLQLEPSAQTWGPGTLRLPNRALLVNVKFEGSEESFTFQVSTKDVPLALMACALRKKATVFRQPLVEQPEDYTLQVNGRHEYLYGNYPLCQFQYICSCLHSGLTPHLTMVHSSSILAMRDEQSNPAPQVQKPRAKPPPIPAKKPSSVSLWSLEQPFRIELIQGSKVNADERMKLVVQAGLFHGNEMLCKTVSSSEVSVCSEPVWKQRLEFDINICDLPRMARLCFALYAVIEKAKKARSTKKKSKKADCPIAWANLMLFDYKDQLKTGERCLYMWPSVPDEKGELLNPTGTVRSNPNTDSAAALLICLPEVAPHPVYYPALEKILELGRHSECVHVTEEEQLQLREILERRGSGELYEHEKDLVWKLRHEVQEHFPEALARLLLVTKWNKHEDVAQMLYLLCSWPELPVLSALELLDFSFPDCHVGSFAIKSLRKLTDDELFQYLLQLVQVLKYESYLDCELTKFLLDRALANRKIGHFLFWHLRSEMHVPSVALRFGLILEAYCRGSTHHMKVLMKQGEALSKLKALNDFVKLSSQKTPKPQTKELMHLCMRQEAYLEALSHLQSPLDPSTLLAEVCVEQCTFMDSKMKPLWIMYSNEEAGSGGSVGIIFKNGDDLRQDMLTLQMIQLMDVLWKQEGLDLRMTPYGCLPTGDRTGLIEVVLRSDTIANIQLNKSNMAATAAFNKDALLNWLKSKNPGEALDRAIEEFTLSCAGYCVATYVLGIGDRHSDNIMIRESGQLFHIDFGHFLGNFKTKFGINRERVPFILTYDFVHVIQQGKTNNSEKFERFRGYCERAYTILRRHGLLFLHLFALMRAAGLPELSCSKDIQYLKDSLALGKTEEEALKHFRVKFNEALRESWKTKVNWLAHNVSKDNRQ
T3 sequence (P27986 whole entry partner): as the sequence (P27986 whole entry partner) above
Source text: as §1, with “follows: […]” for “follows:”

T cell proliferation = assay: Stimulated T cell proliferation (Mouse TCE Stim, Table 4); assay type: cell-based; details: stimulated T cell proliferation, read-out: Mouse TCE Stim (EC50)
human neutrophils = assay: Elastase exocytosis from neutrophils (fMLP-induced); assay type: cell-based; details: neutrophil (PMN) elastase release
Experimental: Aliquots (8 mL) of heparinized blood from healthy volunteers were layered on 3 mL cushions of 7.3% FICOLL® (Sigma, St. Louis, Mo.) and 15.4% HYPAQUE® (Sigma) and centrifuged at 900 rpm for 30 min at room temperature in a table top centrifuge (Beckman). The neutrophil-rich band just above the FICOLL®-HYPAQUE® cushion was collected and washed with Hanks' balanced salt solution (HBSS) containing 0.1% gelatin. Residual erythrocytes were removed by hypotonic lysis with 0.2% NaCl. The neutrophil preparation was washed twice with HBSS containing 0.1% gelatin and used immediately.
In addition to superoxide generation, activated neutrophils also respond by releasing several proteases that are responsible for the destruction of tissues and cartilage during inflammation. As an indication of protease release, the effect of D-000 on elastase exocytosis was measured. Elastase exocytosis was quantitated by modification of the procedure described by Ossanna et al. (J Clin Invest, 77:1939-1951 (1986)), as follows. Purified human neutrophils (0.2×10^6) (treated with either DMSO or a serial dilution of D-000 in DMSO) were stimulated with fMLP in PBS containing 0.01 mg/mL cytochalasin B, 1.0 μM sodium azide (NaN3), 5 μg/mL L-methionine and 1 μM fMLP for 90 min at 37° C. in a 96-well plate. At the end of the incubation period, the plate was centrifuged for 5 min at 1000 rpm, and 90 μL of the supernatant was transferred to 10 μL of 10 mM solution of an elastase substrate peptide, MeO-suc-Ala-Ala-Pro-Val-pNA, wherein MeO-suc=methoxy-succinyl; pNA=p-nitroanilide (Calbiochem, San Diego, Calif.). Absorbance at 410 nm was monitored for 2 hr in a 96-well plate reader. To measure the relative amounts of elastase excytosed, all absorbance values were normalized to the values without any inhibitor. […] Inhibition was half-maximal at a concentration of about 2-3 μM D-000.
as §2

PI3Kγ [5] = target: T4, PI3Kγ (Homo sapiens, UniProt P48736); assay: Biochemical assay of PI3K potency and selectivity using 20 μM ATP, Gamma; details: for Gamma/Delta Ratio: ratio of IC50 values
T4 construct: His tag (pFastbac HTb vector) (N); FLAG (N); made in house; host or cells: Sf21 insect cells (baculovirus)
T4 sequence (P48736 whole entry): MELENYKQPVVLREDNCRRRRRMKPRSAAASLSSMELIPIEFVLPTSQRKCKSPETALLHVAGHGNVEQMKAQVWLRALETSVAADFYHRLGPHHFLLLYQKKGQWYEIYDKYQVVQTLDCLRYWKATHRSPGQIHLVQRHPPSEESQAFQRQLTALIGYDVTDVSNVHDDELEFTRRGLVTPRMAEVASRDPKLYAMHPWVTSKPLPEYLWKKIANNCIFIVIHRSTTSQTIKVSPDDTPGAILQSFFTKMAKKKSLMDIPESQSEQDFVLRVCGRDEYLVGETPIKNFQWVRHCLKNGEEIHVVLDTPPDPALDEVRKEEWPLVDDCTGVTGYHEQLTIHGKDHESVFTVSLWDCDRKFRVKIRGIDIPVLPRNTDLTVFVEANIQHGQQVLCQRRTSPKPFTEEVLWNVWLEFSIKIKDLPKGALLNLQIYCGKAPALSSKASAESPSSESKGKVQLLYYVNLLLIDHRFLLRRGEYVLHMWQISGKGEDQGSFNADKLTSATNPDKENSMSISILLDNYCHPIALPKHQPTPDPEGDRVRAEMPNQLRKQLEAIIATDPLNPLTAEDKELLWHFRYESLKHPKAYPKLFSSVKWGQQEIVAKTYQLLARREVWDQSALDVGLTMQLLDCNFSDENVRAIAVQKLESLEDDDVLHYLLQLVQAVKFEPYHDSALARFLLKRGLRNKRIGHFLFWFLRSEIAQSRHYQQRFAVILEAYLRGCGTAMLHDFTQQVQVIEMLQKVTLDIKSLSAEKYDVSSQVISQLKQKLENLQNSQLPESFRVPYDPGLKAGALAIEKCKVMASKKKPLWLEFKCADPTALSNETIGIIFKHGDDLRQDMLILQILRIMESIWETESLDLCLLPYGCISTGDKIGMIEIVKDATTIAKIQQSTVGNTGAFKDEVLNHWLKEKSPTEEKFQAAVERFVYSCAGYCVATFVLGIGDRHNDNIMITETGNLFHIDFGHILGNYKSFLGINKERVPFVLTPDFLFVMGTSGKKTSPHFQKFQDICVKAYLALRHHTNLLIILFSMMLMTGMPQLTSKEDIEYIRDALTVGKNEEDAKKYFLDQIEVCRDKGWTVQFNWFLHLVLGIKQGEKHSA
Source text: Recombinant baculoviruses containing the above clones were generated using manufacturer's recommended protocol (Life Technologies). Baculoviruses expressing His-tagged p110α, p110γ, or p110δ catalytic subunit and p85 subunit were coinfected into Sf21 insect cells. To enrich the heterodimeric enzyme complex, an excess amount of baculovirus expressing p85 subunit was infected, and the His-tagged p110 catalytic subunit complexed with p85 was purified on nickel affinity column. […] In an alternate approach, p101 can be cloned into baculovirus, to permit coexpression with its preferred binding partner p110γ. […]

PI3Kδ [6] = target: T3, PI3Kδ; assay: Biochemical assay using 200 μM ATP, Delta;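 also: radiometric filter-binding assay: PI3Kδ transfers ³²P from γ-[³²P]ATP onto PIP2/PS liposomes, counted by scintillation, enzyme-only wells as positive control, no-enzyme wells as background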
PI3Kγ [7] = target: T4, PI3Kγ; assay: Biochemical assay using 200 μM ATP, Gamma
Experimental: (§3) PI3Kδ catalyzes a phosphotransfer from γ-[^32P]ATP to PIP2/PS liposomes at the D3′ position of the PIP2 lipid inositol ring. This reaction is MgCl2 dependent and is quenched in high molarity potassium phosphate buffer pH 8.0 containing 30 mM EDTA. […] The reaction products (and all unlabelled products) are transferred to a 96-well, prewetted PVDF filter plate, filtered, and washed in high molarity potassium phosphate. Scintillant is added to the dried wells and the incorporated radioactivity is quantitated.
(§4) This dilution established a final concentration of 200 μM ATP in the reaction volume. The reaction was stopped with 150 μL quench buffer (1.0 M potassium phosphate pH 8.0, 30 mM EDTA). A portion of the quenched solution (180 μL) was then transferred to a PVDF filter plate (Millipore # MAIP NOB prewetted with sequential 200 μL washes of 100% methanol, water, and finally 1.0 M potassium phosphate pH 8.0 wash buffer).
(§5) The PVDF filter plate was aspirated under moderate vacuum (2-5 mm Hg), washed with 5×200 μL of wash buffer, and then dried by aspiration. The filter was subsequently blotted, allowed to air dry completely, and inserted into a Wallac counting cassette with 50 μL of Ecoscint scintillation cocktail added per well.
(§6) Subsequent selectivity assays were done similarly using the same 3× substrate stocks except they contained 0.05 mCi/mL γ[^32P]ATP and 3 mM PIP2. Subsequent selectivity assays also used the same 3× enzyme stocks, except they now contained 3 nM of any given PI3K isoform.
(§7) For all selectivity assays, the test compounds were weighed out and dissolved into 10-50 mM stocks in 100% DMSO (depending on their respective solubilities) and stored at −20° C. […] From these dilutions, 20 μL was added into the assay wells alongside water blanks used for the enzyme (positive) control and the no enzyme (background) control.
(§8) This selectivity protocol is identical to that described above, except the 3× stock ATP concentration was 600 μM.

PI3Kβ [8] = target: T1, PI3Kβ; assay: Biochemical assay using 200 μM ATP, Beta
Experimental: as §3, §4, §5, §6, §7, §8

PI3Kα [9] = target: T2, PI3Kα; assay: Biochemical assay using 200 μM ATP, Alpha
[10] = read-out: percent activity remaining at 100 μM, 20 μM ATP, 100 μM compound did not inhibit by at least 50%

SMILES | Beta/Delta Ratio (PI3Kβ [1]) | remaining activity at 100 µM (PI3Kβ [1]) | melting point | Alpha/Delta Ratio (PI3Kα [2]) | IC50 (PI3Kα [2]) | EC50 [3] | IC50 (PI3Kδ [4]) | EC50 (T cell proliferation) | IC50 (PI3Kβ [1]) | EC50 (human neutrophils) | IC50 (PI3Kγ [5]) | Gamma/Delta Ratio (PI3Kγ [5]) | IC50 (PI3Kδ [6]) | Gamma/Delta Ratio (PI3Kγ [7]) | IC50 (PI3Kγ [7]) | Beta/Delta Ratio (PI3Kβ [8]) | IC50 (PI3Kβ [8]) | Alpha/Delta Ratio (PI3Kα [9]) | remaining activity at 100 µM (PI3Kα [2]; [10]) | remaining activity at 100 µM (PI3Kα [2]; read-out: percent activity remaining at 100 μM)
Nc1ncnc2c1ncn2Cc1nc2cc(F)ccc2c(=O)n1-c1ccccc1Cl [Compound D-003, 2-(6-Aminopurin-o-ylmethyl)-3-(2-chlorophenyl)-7-fluoro-3N-quinazolin-4-one] | >24 | 53% | 216.8 to 217.2 °C | 22 | 92 µM | 3.9 µM | 4 µM | 5.7 µM |  |  |  |  |  |  |  |  |  |  |  | 
Cc1ccccc1-n1c(CSc2ncnc3[nH]cnc23)nc2cccc(Cl)c2c1=O [Compound D-010, 5-Chloro-2-(9H-purin-6-ylsulfanylmethyl)-3-o-tolyl-3H-quinazolin-4-one] | 183 |  | 213.9 °C | 800 | 48 µM | 0.2 ± 0.1 µM | 0.06 µM |  | 11 µM | 0.3 ± 0.3 µM | 0.7 µM | 12 | 0.23 ± 0.2 µM | 27 | 6 ± 3 µM | 144 | 33 ± 4 µM | 658 |  | 
O=c1c2c(Cl)cccc2nc(CSc2ncnc3[nH]cnc23)n1-c1ccccc1F [Compound D-011, 5-Chloro-3-(2-fluorophenyl)-2-(9H-purin-6-ylsulfanylmethyl)-3H-quinazolin-4-one] | 550 |  | 244 °C | >1,000 |  | 0.3 ± 0.1 µM | 0.1 µM |  | 55 µM | 0.9 ± 0.7 µM | 1 µM | 10 | 0.25 ± 0.2 µM | 244 | 61 ± 70 µM | 420 | 105 ± 35 µM | 700 | 72% | 
O=c1c2c(Cl)cccc2nc(CSc2ncnc3[nH]cnc23)n1-c1ccccc1-c1ccccc1 [Compound D-013, 3-Biphenyl-2-yl-5-chloro-2-(9H-purin-6-ylsulfanylmethyl)-3H-quinazolin-4-one] | 260 |  | 222 to 222.5 °C (dec.) | >2,000 |  | 1.4 µM | 0.05 µM |  | 13 µM |  | 2.1 µM | 42 | 0.51 ± 0.6 µM | 24 | 12 ± 1 µM | 289 |  | 461 | 71% | 
O=c1c2cccc(Cl)c2nc(CSc2ncnc3[nH]cnc23)n1-c1ccccc1Cl [Compound D-021, 8-Chloro-3-(2-chlorophenyl)-2-(9H-purin-6-ylsulfanylmethyl)-3H-quinazolin-4-one] | 68 |  | 211.9 to 212.7 °C | 62 | 100 µM | 1.8 µM | 1.6 µM | 3.5 µM | 110 µM |  |  |  |  |  |  |  |  |  |  | 
CC(=O)O.O=c1c2ccccc2nc(CSc2ncnc3[nH]cnc23)n1N1CCOCC1 [Compound D-039, 3-morpholin-4-yl-2-(9H-purin-6-ylsulfanylmethyl)-3H-quinazolin-4-one, acetate salt] | >111 | 66% |  | >111 |  | 0.9 ± 0.1 µM | 0.9 µM |  |  | 5 µM | 38 µM | 42 | 2.6 µM | 44 |  | 50 |  | 65 |  | 77%
O=c1c2c(F)cccc2nc(CSc2ncnc3[nH]cnc23)n1Cc1ccccc1 [Compound D-043, 3-benzyl-5-fluoro-2-(9H-purin-6-ylsulfanylmethyl)-3H-quinazolin-4-one] | >47 | 77% |  | >47 |  | 1.4 µM | 2.1 µM | 2.6 µM |  |  |  |  |  |  |  |  |  |  | 83% | 
COc1ccccc1-n1c(CSc2ncnc3[nH]cnc23)nc2cccc(C)c2c1=O [Compound D-047, 3-(2-methoxyphenyl)-5-methyl-2-(9H-purin-6-ylsulfanylmethyl)-3H-quinazolin-4-one] | 100 |  |  | 333 | 30 µM | 0.3 µM | 0.09 µM |  | 9 µM | 0.5 ± 0.2 µM | 0.5 µM | 5.6 | 0.2 µM | 23 | 4.5 µM | 150 | 30 µM | 810 |  | 
Nc1ncnc2c1ncn2Cc1nc2cccc(F)c2c(=O)n1Cc1ccccc1 [Compound D-049, 2-(6-aminopurin-9-ylmethyl)-3-benzyl-5-fluoro-3H-quinazolin-4-one] | 30 |  |  | >100 |  | 2 µM | 1 µM | 6.3 µM | 30 µM | 5 µM |  |  |  |  |  |  |  |  | 110% | 
